Where a name gives a salt, the structure may show the parent alone. *1 amine or outer side, *2 acyl side, *3 side chain or, on linkers, in order; H or OH if unused. Where a SMILES comes first, the peptide text is derived from it. [ ]: non-standard residue; d: D form. The star is where a group is joined. Sta = CC(C)C[C@H](N)[C@@H](O)CC(=O)O; Isovaleryl = CC(C)CC(=O)*; CO = O=C([*:1])[*:2]
System: serratia metalloprotease SMP #1 from Serratia marcescens NRRL B-23112, SEQ ID NO:2
Experiment: Inhibition of protease activity of SMP #1: residual proteolytic (casein digestion) activity after addition of inhibitor, 25°C, 30 minutes
Format: biochemical

CC(C)C[C@H](NC(=O)[C@@H](NC(=O)N[C@@H](Cc1ccccc1)C(=O)O)[C@@H]1CCN=C(N)N1)C(=O)N[C@H](C=O)Cc1ccccc1 [chymostatin] was tested, and the “inhibition of SMP #1” value (50μg/ml) was “not inhibited”.

With OCCS [2-mercaptoethanol] the “activity of SMP #1 retained in the presence of 2-mercaptoethanol” value (0.5% v/v) was “retains full activity”.

CC(C)C[C@H](NP(=O)(O)O[C@@H]1O[C@@H](C)[C@H](O)[C@@H](O)[C@H]1O)C(=O)N[C@@H](Cc1c[nH]c2ccccc12)C(=O)O [phosphoramidon] was tested, and the “inhibition of SMP #1” value (660μg/ml) was “not inhibited”.

In the case of CC(C)C[C@H](NC(=O)[C@@H](O)[C@H](N)Cc1ccccc1)C(=O)O [bestatin], the “inhibition of SMP #1” value (80μg/ml) is reported as “not inhibited”.

With Cl.NCCc1ccc(S(=O)(=O)F)cc1 [Pefabloc SC] the “inhibition of SMP #1” value (2000μg/ml) was “not inhibited”.

For CC(C)CC(=O)N[C@H](C(=O)N[C@H](C(=O)N[C@@H](CC(C)C)[C@@H](O)CC(=O)N[C@@H](C)C(=O)N[C@@H](CC(C)C)[C@@H](O)CC(=O)O)C(C)C)C(C)C [pepstatin] (Isovaleryl-VV[Sta]A[Sta]-OH), the “inhibition of SMP #1” value (4μg/ml) was “not inhibited”.

In the case of CC(=O)N[C@@H](CC(C)C)C(=O)N[C@@H](CC(C)C)C(=O)N[C@H](C=O)CCCNC(=N)N [leupeptin], the “inhibition of SMP #1” value (4μg/ml) is reported as “not inhibited”.

For CC(C)[C@H](NC(=O)[C@H](CCCNC(=N)N)NC(=O)N[C@@H](Cc1ccccc1)C(=O)O)C(=O)N[C@H](C=O)CCCNC(=N)N [antipain dihydrochloride] ({Phe-CO}-Arg-Val-Arg-aldehyde), the “inhibition of SMP #1” value (120μg/ml) was “not inhibited”.

With CC(C)C[C@H](NC(=O)[C@H]1O[C@@H]1C(=O)O)C(=O)NCCCCNC(=N)N [E-64] the “inhibition of SMP #1” value (20μg/ml) was “not inhibited”.

For O=S(=O)(F)Cc1ccccc1 [phenylmethylsulfonyl fluoride], the “inhibition of SMP #1” value (400μg/ml) was “not inhibited”.

With O=C(O)CN(CCN(CC(=O)O)CC(=O)O)CC(=O)O [EDTA] the “inhibition of SMP #1” value (9μg/ml) was “inhibited”.

— patent WO2005094256A2, “Polypeptides toxic to nematodes, and methods of use” (Individual, priority 2004, dated 2005)
